Source: patent US20130288323A1, “MICROBIAL PRODUCTION OF POLYHYDROXYALKANOATES” (UNIVERSITY OF MANITOBA, priority 2010, published 2013)

Assays:
[1] = test system: P. aeruginosa; conditions: salicylic acid between 5 mM and 60 mM in growth medium; cited from earlier work
[2] = test system: P. putida LS46; test: Growth of P. putida LS46 in the presence of salicylic acid; assay type: cell-based, Pseudomonas putida; conditions: salicylic acid at 10 mM
Procedure: (§1) Salicylic acid has been used as an inhibitor of β-oxidation in plant, animal, and bacterial cells. […] Salicylic acid at 10 mM inhibited P. putida LS46 growth. Therefore, 1-5 mM concentration of salicylic acid was studied for its effect on mcl-PHA production by P. putida LS46. To separate volumes of Ramsey's liquid medium supplemented with 2% of glucose were added: (i) no salicylic acid (control), (ii) 1.0 nM salicylic acid, (iii) 2.5 mM salicylic acid, or (iv) 5.0 salicylic acid. After sterilization, the liquid media were dispensed into flasks which were then each inoculated with 1% inoculum of P. putida LS46, and then cultured for 48 h. Cultures were then harvested and their cdw, the percentage accumulation of mcl-PHAs in the cells, and the mol % monomer composition of C8 […] the mcl-PHAs were determined. […] 3-hydroxyoctanoate decreased, while 3-hydroxydecanoate increased, in the presence of 2.5 mM and 5.0 mM salicylic acid, compared with the control (Table 6).

[3] = test system: P. putida LS46; test: Effects of salicylic acid on production of mcl-PHAs by P. putida LS46; assay type: cell-based, Pseudomonas putida; conditions: Ramsey's medium + 2% glucose, 48 h
Procedure: Six of the microbial isolates (i.e., LS1, LS5, LS33, LS34, LS39, LS46) that produced epifluorescence under UV illumination were separately cultured for 72 h in: (i) 200 mL LB broth, and (ii) 200 mL LB broth supplemented with 3 g/L glucose. The microbial cells were centrifuged at 4500 g for 20 min in a Sorvall RC6-Plus centrifuge. The microbial pellets were washed twice in 0.85% NaCl and then dried at 80° C. for 48 h. The intracellular PHA contents and PHA composition were determined by GC-MS following the method taught by Braunegg et al. (1978, Eur. J. Appl. Microbiol. Biotechnol. 6:29-37). Dried cells (20 mg) were mixed with 1 mL chloroform and 1 mL methanol containing 15% sulphuric acid. Benzoic acid (1 mg/mL) was used as an internal standard. The suspensions were refluxed at 100° C. for 4 h, after which, 0.5 ml of water were added to each suspension. The mixtures were centrifuged at 4000×g. The lower chloroform layers were separated and analyzed using a GC-MS fitted FID detector and aHP-5 capillary column. The initial oven temperature was set at 75° C. for 6 min and then was increased to 265° C. with a ramping rate of 20° C./min.
as §1, with “To separate volumes of Ramsey's liquid medium supplemented with 2% of glucose were added: (i) no salicylic acid (control), (ii) 1.0 nM salicylic acid, (iii) 2.5 mM salicylic acid, or (iv) 5.0 salicylic acid.” left out

[4] = test system: P. putida LS46; test: as above; assay type: cell-based, Pseudomonas putida; conditions: 1.0 mM salicylic acid; Ramsey's medium + 2% glucose; 48 h

O=C(O)c1ccccc1O [Salicylic acid, salicylic acid]
monomer composition of mcl-PHAs produced by P. aeruginosa [1]: altered the monomer composition
growth of P. putida LS46 [2]: inhibited
3-hydroxyalkanoate monomer content C10 ([3]; 1.0 mM salicylic acid): 47.90 mol %
3-hydroxyalkanoate monomer content C12 ([3]; 1.0 mM salicylic acid): 1.91 mol %
CDW ([3]; 1.0 mM salicylic acid): 3.08 g/L
3-hydroxyalkanoate monomer content C6 ([3]; 2.5 mM salicylic acid): 3.39 mol %
3-hydroxyalkanoate monomer content C8 ([3]; 2.5 mM salicylic acid): 44.06 mol %
3-hydroxyalkanoate monomer content C10 ([3]; 2.5 mM salicylic acid): 52.03 mol %
3-hydroxyalkanoate monomer content C12 ([3]; 2.5 mM salicylic acid): 0.93 mol %
CDW ([3]; 2.5 mM salicylic acid): 2.89 g/L
PHA content ([3]; 2.5 mM salicylic acid): 28.90 % CDW
3-hydroxyalkanoate monomer content C6 ([3]; 5.0 mM salicylic acid): 2.46 mol %
3-hydroxyalkanoate monomer content C8 ([3]; 5.0 mM salicylic acid): 42.49 mol %
3-hydroxyalkanoate monomer content C10 ([3]; 5.0 mM salicylic acid): 53.36 mol %
3-hydroxyalkanoate monomer content C12 ([3]; 5.0 mM salicylic acid): 0.66 mol %
CDW ([3]; 5.0 mM salicylic acid): 2.64 g/L
PHA content ([3]; 5.0 mM salicylic acid): 21.89 % CDW
3-hydroxyalkanoate monomer content C6 [4]: 3.97 mol %
3-hydroxyalkanoate monomer content C8 [4]: 46.30 mol %
PHA content [4]: 26.07 % CDW
